{"source": "paper PMC10987543", "about": "(Cell Death Discovery, 2024)", "key": {"4T1 cells [1]": {"tested_on": "4T1 cells", "test": "Calcein-AM live cell imaging of cytosol release", "format": "cell-based, murine", "protocol": "(§1) Fluorescence labeling of cells was performed by seeding 5.0 × 10^4 4T1 cells in a 35 mm dish on a collagen-coated No. 1.5 coverslip with a 14 mm glass diameter (MatTek, Ashland, MA). After overnight incubation, the cells were washed once with serum-free media and replaced with fresh serum-free media. For cell cytosol labeling, Calcein-AM (Thermo Fisher Scientific, C1430) was added at a final concentration of 5 µg/mL and incubated for 10 min. For mitochondrial membrane labeling, JC-1 (Thermo Fisher Scientific, T3168) was added at a final concentration of 10 µg/mL and incubated for 10 min. To monitor the activity of caspases, CellEvent Caspase-3/7 Red detection reagents (Thermo Fisher Scientific, C10423) were used following the manufacturer’s instructions. For nuclear staining, Hoechst 33342 (Cell Signaling Technology, #4082) was added at a final concentration of 5 µg/mL and incubated for 10 min.\nCells were imaged on either a Zeiss LSM 700 or a 3i spinning disk confocal microscope. Samples were imaged with optimized microscope settings. Z-stack, time-lapse, or multi-channel acquisition settings were adjusted based on the experimental requirements. Images were then acquired with the appropriate excitation and emission wavelengths for each fluorophore.\nImage processing was performed using Fiji software. For each image/video, the brightness and the contrast were adjusted. The time stamp and the scale bar were added. For quantification, CellProfiler was used. After cell segmentation based on the nucleus, the intensity of the signal of interest was quantified for each cell. Based on the intensity, each cells were labeled as positive or negative and the fraction of positive cells was calculated."}, "CT26 tumors": {"tested_on": "CT26 tumors", "test": "CT26 colon carcinoma model, intratumoral treatment", "format": "in vivo, Balb/c mice", "conditions": "40 mg/kg intratumoral daily from day 7, N = 10", "protocol": "The protocols used in this study were approved by the Institutional Care and Use Committee at Johns Hopkins Medical Institutions. Four- to eight-week-old female Balb/c mice were obtained from Charles River (Wilmington, MA). For the 4T1 […] model, 2.5 × 10^4 4T1 cells were injected into the first mammary fat pad of each mouse. For the CT26 colon carcinoma model, 1.0 × 10^6 CT26 cells were injected subcutaneously in the left flank. The sample size was determined so that the final distribution would be close to normal distribution. After 1 week, the animals were randomized into control and CKS1 treatment. During the randomization, the mice were kept in a cage covered with cloth so that the investigator could not see the tumor size. We started daily intratumoral treatment with 40 mg/kg CKS1. For the control group, the matching volume of water was treated intratumorally. The tumor size was measured by using a caliper, and the volume was calculated by using the formula 0.52 × (length) × (width)^2."}, "4T1 cells [2]": {"tested_on": "4T1 cells", "test": "Quantification of ATP release", "format": "cell-based, murine", "conditions": "20 µM or 100 µM, 30 min, N = 3", "protocol": "(§2) Two-lakh cells of 4T1 cells or CT26 cells in growth media were seeded in wells of a 96-well plate. After 12 h, the media was replaced with serum-free media, and the cells were treated with the corresponding concentration of CKS1. […] After filtering the supernatant with a 0.2 µm pore filter (Corning, 431229), the amount of ATP in the supernatant was quantified using the ENLITEN ATP assay system (Promega Corporation, Madison, WI, FF2000). We followed the instructions from the manufacturer when using the ENLITEN ATP assay system."}, "CT26 cells": {"tested_on": "CT26 cells", "test": "Quantification of ATP release", "format": "cell-based, murine", "conditions": "20 µM or 100 µM, 30 min, N = 3", "protocol": "as §2"}, "caspase-3": {"tested_on": "caspase-3", "test": "Caspase-3 activity assay in cell lysate", "format": "cell-based, murine", "conditions": "4T1 cells, 100 µM, N = 3", "protocol": "Ten thousand 4T1 cells were seeded in 96-well plates and incubated overnight. After CKS1 treatment, the cells were lysed using a lysis buffer (Cell Signaling Technology, #7018). The activity of caspase-3 in the cell lysate was quantified using the caspase-3 activity assay kit (Cell Signaling Technology, #5723) following the manufacturer’s instructions. Briefly, the cell lysate was incubated with a substrate of caspase-3 which was designed to emit fluorescence when cleaved. After incubation, the fluorescence was measured using a plate reader. The protein concentration of the cell lysate was quantified using the DC protein assay kit (Bio-Rad). The caspase-3 activity was divided by the protein concentration to obtain the caspase-3 activity per µg/mL protein in the cell lysate."}, "4T1 murine TNBC cells": {"tested_on": "4T1 murine TNBC cells", "test": "Real-time cell viability assay (xCELLigence RTCA)", "format": "cell-based", "conditions": "serum-free media, dose-dependent, representative of N = 3", "protocol": "Three thousand cells were seeded in the wells of an xCELLigence RTCA E-plate 16 (Agilent, Santa Clara, CA). After the cells adhered to the plate, the media was replaced with serum-free media, and the cells were treated with CKS1 at the indicated concentrations. The viability of the cells was monitored using the xCELLigence RTCA analyzer (Agilent)."}, "[3]": {"tested_on": "DC2.4 murine dendritic cells", "test": "Immunogenicity experiment: cytokine expression in dendritic cells (qPCR)", "format": "cell-based", "conditions": "DC2.4 cells, 2 h with conditioned media from 4T1 cells treated with 100 µM CKS1; N = 4", "protocol": "Two-lakh cells of 4T1 cells were seeded in wells of a 6-well plate. After overnight incubation, the media was replaced with 500 µL of fresh media, and 4T1 cells were treated with either 100 µM CKS1 or water for 2 h. In a separate well, 500 µL of fresh media was added and 100 µM CKS1 was incubated for 2 h. After the 2 h of incubation, all the supernatant was collected, filtered with 0.22 µm syringe filter, and was stored at −80 °C. Five lakh cells of DC2.4 cells were seeded in wells of a 24-well plate. After overnight incubation, the media was replaced with fresh media, supernatant from 4T1 cells treated with water, supernatant from 4T1 cells treated with 100 µM CKS1, or media containing 100 µM CKS1. DC2.4 cells were incubated for 2 h before RNA extraction.\nRNA extraction was conducted using QIAwave RNA Mini Kit (Qiagen, Germany, 74535) following the manufacturer’s instructions. […]\nReal-time qPCR was conducted using PowerUp SYBR Green Master Mix for qPCR (Thermo Fisher Scientific, A25741) following the manufacturer’s instructions. […] The relative quantity of TNF, IL-6, and IL-12b was normalized to the relative quantity of GAPDH. Finally, the expression level of the cytokines was normalized to the control sample and the fold change was calculated."}, "4T1 cells [4]": {"tested_on": "4T1 cells", "test": "JC-1 mitochondrial membrane potential live cell imaging", "format": "cell-based, murine", "conditions": "100 µM", "protocol": "as §1\nCells were imaged on either a Zeiss LSM 700 or a 3i spinning disk confocal microscope. Samples were imaged with optimized microscope settings. […]\nImage processing was performed using Fiji software. […] For quantification, CellProfiler was used. After cell segmentation based on the nucleus, the intensity of the signal of interest was quantified for each cell. Based on the intensity, each cells were labeled as positive or negative and the fraction of positive cells was calculated."}}, "note": "“Also recorded” adds a separate entry of the source. Ends that are not written are not given here.", "data": [{"substance": "NGRKACLNPASPIVKKIIEKMLNS-NH2 [CKS1, Chemokinostatin-1]", "values": [{"measurement": "time to release of cytosol (calcein) after treatment", "setting": "4T1 cells [1]; 4T1 cells stained with calcein-AM, 100 µM, representative of N = 3", "value": "15 to 30", "unit": "min"}, {"measurement": "fraction of cancer cells with damaged cell membrane", "setting": "4T1 cells [1]; concentration significantly higher than the IC50 value", "value": "~100", "unit": "%"}, {"measurement": "tumor growth (tumor volume)", "setting": "CT26 tumors", "value": "inhibited; also recorded: highly sensitive"}, {"measurement": "release of ATP in the culture media", "setting": "4T1 cells [2]", "value": "significant release of ATP"}, {"measurement": "release of ATP in the culture media", "setting": "CT26 cells", "value": "significant release of ATP"}, {"measurement": "caspase-3 activity in cell lysate", "setting": "caspase-3; 30 min", "value": "not activated"}, {"measurement": "caspase-3 activity in cell lysate", "setting": "caspase-3; 4 h", "value": "activated after 4 h"}, {"measurement": "time to cell death (reduction in cell index) after treatment", "setting": "4T1 murine TNBC cells", "value": "≤ 1", "unit": "h"}, {"measurement": "expression level of TNF, IL-6, IL-12b", "setting": "[3]", "value": "significantly increased the expression level of the cytokines"}, {"measurement": "mitochondrial membrane potential (JC-1 fluorescence)", "setting": "4T1 cells [4]", "value": "rapid switch of JC-1 emitted fluorescence from red to green"}]}]}
